Consider 99 molecules from ChEMBL document CHEMBL3507680, “University of Dundee, Gates Library screen for HepG2 cell viability”.

The series in a line: Human HepG2 cell viability assay in 384 well format. The format is toxicity, cell-based. Further details: dose 125 nL, time 70.5 hour; concentration not given beside the values. The conditions noted are these: HepG2 cells, read-out: Inhibition.
In the case of `Cc1cc(C(=O)N2CC[C@@H]3CO[C@@H](CN4CCCC4)[C@@H]3C2)no1`, the cytotoxicity at 70.5 h is -7.99%.
With `CC1CN(CC(=O)NCc2ccc(F)cc2)CCN1c1nccs1` (centres undefined) the figure was 0.122%.
With `O=C1[C@H]2CN(c3ncc(F)cn3)C[C@H]2CN1CC1CC1` the figure was 5.29%.
In the case of `CN(Cc1ccccc1)c1ncccc1CNC1CN2CCC1CC2` (centres undefined) it was -6.82%; in that of `COCC(=O)NC[C@H]1C[C@@H]2CCN1C[C@@H]2CN(C)c1ccccc1`, 0.807%; in that of `COC(=O)C(CNC(=O)Nc1nncs1)Cc1cccc(C)c1` (centres undefined), -3.4%.
For `O=C(CN1CCOC1=O)N1CCc2nnc(-c3ccccc3)n2CC1`, the cytotoxicity at 70.5 h came out at 11.7%.
With `Cc1nccc(-c2cccc(NCC(=O)N3CCCC(C)C3)c2)n1` (centres undefined) the figure was -9.5%.
In the case of `CN1CC(C(=O)NCCc2ccc3c(c2)OCCO3)CC1=O` (centres undefined) it was -1.68%; in that of `CNC(=O)Cc1noc(-c2cc3c(s2)CCC(C)C3)n1` (centres undefined), -3.99%.
With `O=C(Cc1ccccc1)N1CCC2(CC1)CC(Nc1cnccn1)CO2` (centres undefined) the figure was -8.13%.
For the molecule `Cc1c[nH]c(CN(C)C(=O)c2cccc(CCC(C)(C)O)c2)n1`, the cytotoxicity at 70.5 h is -5.47%.
In the case of `CC(C)c1cc(C(=O)N2C[C@@H](C)[C@](O)(C3CC3)C2)[nH]n1` it was -5.59%; in that of `Cc1nc(N(C)C2CCCCC2)ncc1C(C)NC(=O)c1cscn1` (centres undefined), 1.66%; in that of `O=C(c1c2c(N3CCCC3)ncnc2n2ccccc12)N1CCCC1`, -11%.
With `CC(Nc1cccc(CN2CCOC2=O)c1)C(=O)Nc1ccccc1` (centres undefined) the figure was -22.1%; with `O=C(O)c1c(-c2ccoc2)ncc2c1CCN(C1CCOC1)C2` (centres undefined), -2.3%.
With `O=C(c1n[nH]c(=O)c2ccccc12)N1CCC(O)(CN2CCOCC2)C1` (centres undefined) the figure was 14.5%; with `CN(C)CCCNC(=O)CNC(=O)N1CCc2c([nH]c3ccccc23)C1`, 35.2%.
In the case of `CC(C)Nc1ccc2c(c1)C1(CCOCC1)C(=O)N2c1ccsc1`, the cytotoxicity at 70.5 h is -7.35%.
In the case of `CCC(C)NC(=O)CS(=O)(=O)Cc1cc(Cl)c2c(c1)OCCCO2` (centres undefined) it was -5.29%; in that of `COc1ncccc1CNC(=O)N1CCC(CN2CCOCC2)CC1`, 13.3%.
In the case of `Cc1nc(O)cc(C2CCN(Cc3ccc(F)c(F)c3)C2)n1` (centres undefined) it was -5.53%.
In the case of `COC[C@H]1CCC[C@H]1Nc1ncnc2c1CCNCC2` it was -3.38%; in that of `CN1C[C@@H]2CN(C(=O)C3CC=CC3)C[C@@H]2C1=O`, -5.58%.
For the molecule `Cc1cccc(S(=O)(=O)N2C[C@@H]3OCCN(C(C)C)[C@@H]3C2)c1`, the cytotoxicity at 70.5 h was -6.06%.
In the case of `Cc1cc(SCC(N)=O)nc(-c2ccc(F)cc2)n1` it was -9.61%; in that of `CCN1CCN(S(=O)(=O)c2cc(C)c(Cl)cc2Cl)CC1`, 10.1%; in that of `CCCc1cc(N2CCC(N[C@H]3CC[C@H](O)CC3)CC2)nc(C)n1`, -4.54%.
In the case of `COc1cc2c(cc1CNC(=O)Cc1cc(C)on1)OC(C)C2` (centres undefined) it was -8.66%.
`Cc1nc(C(C)C)sc1C(=O)NCCSc1ccccn1`: the cytotoxicity at 70.5 h is -11.3%.
For the molecule `O=C(Cc1ccc(F)cc1Cl)N1CC[C@H](CO)[C@@H](O)C1`, the cytotoxicity at 70.5 h was 9.17%.
With `Cc1nc(CN2CCCC(NCCCc3ccccc3)C2)no1` (centres undefined) the figure was -10.6%.
With `CSc1nccc(NCc2cc3n(n2)CCCN(C(=O)C2CCC2)C3)n1` the figure was 22.4%; with `CC1CN(C)CCN1C(=O)c1cccn1Cc1cccs1` (centres undefined), -8.42%.
In the case of `CS(=O)(=O)C1(C(=O)NC2CCc3nccn3C2)CCCC1` (centres undefined) it was -4.12%.
Regarding `CC(C)(NC(=O)NCc1cccc(Br)c1)C(=O)O`, the cytotoxicity at 70.5 h was -9.51%.
With `Cc1noc([C@H]2CC[C@@H]3[C@@H](CCN3S(C)(=O)=O)O2)n1` the figure was 1.24%; with `CCOC(=O)C1CCN(Cc2csc(C(C)(C)C)n2)CC1`, -2.2%; with `Cn1cc(CCNC(=O)NCc2nnc3n2CCC3)cn1`, -22.4%.
In the case of `O=C(C1CCCC1)N1CC[C@]2(O)CCN(Cc3ncccn3)C[C@@H]2C1` it was -3.12%.
With `Cc1ncc2c(n1)CN(Cc1nnc(-c3occc3C)o1)CC2` the figure was 4.24%; with `CCn1c(N)nc2cc(C(=O)NCCc3ccncc3)cnc21`, -13.4%.
Consider `CN1CCCN(C(=O)NCc2csc(Br)c2)CC1`, for which the cytotoxicity at 70.5 h was -6.63%.
With `COc1cccc(-c2ncc(CN3CC[C@H](CO)[C@@H](O)C3)s2)c1` the figure was -20.8%; with `O=C1CNc2ncnc(Nc3cnn(Cc4ccccc4)c3)c2N1`, 27%.
Take `CC(C)CNC(=O)[C@H]1CCS(=O)(=O)[C@@H]2CN(c3ncccn3)C[C@H]12`: the cytotoxicity at 70.5 h was -10.6%.
Turning to `CCCNC(c1ccc(F)cc1)c1cccnc1` (centres undefined), the cytotoxicity at 70.5 h was -19.4%.
In the case of `COc1ccc(C(=O)NC2CC2)c(OC2CCN(C3CCC3)CC2)c1` it was -3.47%; in that of `CNc1cc(C2CCCN(C(=O)c3ccc(=O)[nH]n3)C2)ccn1` (centres undefined), -0.0309%; in that of `Cc1ccc(Br)cc1S(=O)(=O)NCCc1nnc[nH]1`, 11.5%.
`CC(C)(C)OC(=O)N1CCN(C(=O)CCn2cccn2)CC1`: the cytotoxicity at 70.5 h is -4.56%.
In the case of `Cc1nc(CCN(C)C(=O)CN2C(=O)OC[C@@H]2c2ccccc2)no1` it was -4.02%; in that of `Cc1cccc(OC2CCN(C(=O)CNC(=O)N(C)C)CC2)c1`, -0.834%.
In the case of `CS(=O)(=O)NC1CCCN(C(=O)Nc2cccnc2)C1` (centres undefined) it was 25.1%; in that of `CN1N=C(C(=O)N2CCN(c3ncccc3Cl)CC2)CCC1=O`, 12%; in that of `CCn1cc(N2Cc3nc(N4CCN(C)CC4)ncc3C2=O)cn1`, -7.74%.
For the molecule `NC(=O)c1csc(N2CCCC(c3n[nH]c(=O)n3-c3ccccc3)C2)n1` (centres undefined), the cytotoxicity at 70.5 h was -6.33%.
In the case of `Cc1ccsc1CNC(=O)NC1CCCc2c1cnn2CCO` (centres undefined) it was -6.7%.
With `COc1ccnc(N2Cc3cnc(C(C)(C)C)nc3C2)n1` the figure was 0.551%; with `CC1N(c2cnn(C)c2)C(=O)COC12CCN(c1ccccn1)CC2` (centres undefined), -2.76%; with `CC(C)COC(C)C(=O)N1CCCCC1` (centres undefined), -3.46%.
Turning to `CCc1ccc(CN(C/C=C/c2ccccc2)CCOC)nc1`, the cytotoxicity at 70.5 h is -2.77%.
In the case of `COCCC1(CNC(=O)NC2CCCN(C)C2)CC1` (centres undefined) it was 0.563%.
In the case of `Cn1cc(N2CC3(COCCN(Cc4ccsc4)C3)OCC2=O)cn1` (centres undefined) it was 22.6%.
In the case of `CC(=O)c1cccc(OCCCC(=O)N(C)Cc2cscn2)c1` it was 7.32%.
In the case of `Cn1cnc2c1CCN(C(C(=O)N1CCCCC1)c1ccccc1)C2` (centres undefined), the cytotoxicity at 70.5 h was -6.79%.
With `COCCc1nc(CN2CC(C)(c3ccccc3)CCC2=O)no1` (centres undefined) the figure was -2.58%; with `Cc1ncsc1-c1nnc(C2CCN(Cc3ccccc3Cl)CC2)o1`, -0.461%; with `CN(c1ncc(C(=O)Nc2ccccc2)c(N)n1)C1CCCCC1`, -0.75%.
Turning to `COc1ccc(C(=O)C2CCCN(Cc3cnn(C)c3C)C2)c(OC)c1` (centres undefined), the cytotoxicity at 70.5 h is -20.2%.
With `COc1ccc(-c2nc(C(=O)NCC3CCOC3)cs2)cc1OC` (centres undefined) the figure was -7.66%.
Turning to `O=C(NC1CCN(c2ccc(-c3ccccc3F)nn2)C1)c1cc[nH]n1` (centres undefined), the cytotoxicity at 70.5 h is -12.8%.
In the case of `CCc1cc(NCC(N)=O)nc(N2CCCCC2)n1` it was -8.82%; in that of `O=C(c1ncccn1)N1C[C@@H]2COC[C@]2(c2nnc(C3CC3)o2)C1`, 9.47%; in that of `CCc1nc(CN2CCN(C(C)c3nc(C4CC4)no3)CC2)no1` (centres undefined), -10.3%.
With `CC(C)N1CCC(CC(=O)NC(C(=O)O)c2cc(F)ccc2F)CC1` (centres undefined) the figure was -16.6%.
`CCc1c(C)nc2cc(C3CCN(Cc4ccccc4F)C3)nn2c1O` (centres undefined): the cytotoxicity at 70.5 h is -2.56%.
Regarding `Cc1c(Br)c(C(F)F)nn1C(C)C(=O)O` (centres undefined), the cytotoxicity at 70.5 h was -10.2%.
With `CCc1cc(N2CCC(F)(F)CC2)n2nc(C)c(C)c2n1` the figure was -7.1%.
Turning to `Cc1cc(C(=O)N2CCc3c(CN(C)C(C)C)n[nH]c3C2)[nH]n1`, the cytotoxicity at 70.5 h was 0.919%.
In the case of `CCCc1cncnc1N1CCC(NCCc2nc(O)cc(O)n2)CC1` it was -7.02%; in that of `Cc1noc(C2CCN(Cn3cc(Cl)cn3)CC2)n1`, -4.35%.
In the case of `CNC(=O)c1ccc(C(=O)N2CCC(Nc3cccnn3)CC2)cn1` it was -4.73%; in that of `CC(c1nccs1)N(C)C(=O)c1cc(CN(C)Cc2ccccc2)on1` (centres undefined), 0.573%.
In the case of `CN(C)S(=O)(=O)c1ccc(CN2CCCC2c2ccc[nH]2)o1` (centres undefined) it was -5.46%; in that of `Cc1ccc(-c2nc(CNC3CCc4ncnn4C3)co2)cc1` (centres undefined), -9.15%.
In the case of `O=C(NCCC1=CCCCC1)c1ccc(-n2cccc2)nc1`, the cytotoxicity at 70.5 h is -3.84%.
In the case of `COCCn1c(-c2cccc(OC)c2)cnc1NC(=O)NCC(C)C` it was -18.3%.
On to `CC(C)N(C)S(=O)(=O)N(C)Cc1ccc2c(c1)OCCO2`, for which the cytotoxicity at 70.5 h was determined as 4.58%.
With `Cc1ccc(CN2CCC3(CC(C(=O)NCC4CC4)=NO3)C2)s1` (centres undefined), the cytotoxicity at 70.5 h is -8.89%.
In the case of `O=C(CNc1cc(F)ccc1OCC1CCCO1)N1CCOCC1` (centres undefined) it was -0.218%; in that of `CNc1ncc(CN(C)CCN2CCCCC2)cn1`, 36.6%.
With `Cc1cc(NCc2cccc(C#N)c2)ccc1Br` the figure was -7.27%; with `CSCCC1c2nc[nH]c2CCN1Cc1ccccc1C#N` (centres undefined), -6.75%.
In the case of `CCSCc1csc(-c2ccc(S(C)(=O)=O)cc2)n1` it was -2.67%; in that of `Cc1noc(C)c1C(=O)N1CCC(c2cc3cnccc3[nH]2)CC1`, -5.78%.
In the case of `Cc1noc(CN2CCN(CCO)CC2)n1`, the cytotoxicity at 70.5 h was -3.7%.
In the case of `O=C(NCc1ccco1)N1CCCCC1c1nc(-c2ccncc2)no1` (centres undefined) it was -12.6%.
